Test results reported in patent US20030224940A1, “Alpha-sulfin-and alpha-sulfonamino acid amide derivatives” (priority 2000, published 2003).
Where two headings read alike, the source gives them in different places.

Legend:
[1] = test system: Phytophthora; test: whole plant or invertebrate; type: in vivo; details: in Solanum lycopersicum, read-out: inhibit fungal infestation
[2] = test system: Phytophthora; test: whole plant or invertebrate; type: in vivo; details: in Solanum tuberosum, read-out: inhibit fungal infestation
[3] = test system: Plasmopara viticola; details: read-out: inhibit fungal infestation
Method: D-1: Action Against Plasmopara viticola (downy mildew) on Vines
5 week old grape seedlings cv. Gutedel are treated with the formulated test compound in a spray chamber. One day after application grape plants are inoculated by spraying a sporangia suspension (4×10^4 sporangia/ml) on the lower leaf side of the test plants. After an incubation period of 6 days at +21° C. and 95% r. h. in a greenhouse the disease incidence is assessed.

**Q.** For `CCS(=O)(=O)N[C@H](C(=O)NCc1ccc(O)c(OC)c1)C(C)C`, which melting point is on record?
**A.** 49 to 50 °C

**Q.** Which melting point does the source give for `CCS(=O)(=O)N[C@H](C(=O)NCc1ccc(OCc2ccccc2)c(OC)c1)C(C)C` here?
**A.** 141 to 152 °C

**Q.** For `CCS(=O)(=O)N[C@H](C(=O)NCc1ccc(OCC#Cc2ccc(Cl)cc2)c(OC)c1)C(C)C` [Compound A1.1, (S)-N-{4-[3-(4-Chloro-phenyl)-prop-2-ynyloxy]-3-methoxy-benzyl}-2-ethanesulfonylamino-3-methyl-butyramide], which inhibition at 200 ppm [1] is on record?
**A.** ≥ 80%

**Q.** And the inhibition at 200 ppm [2]?
**A.** ≥ 80%

**Q.** What about the melting point of the same compound?
**A.** 162 to 163 °C

**Q.** And the inhibition at 200 ppm [3]?
**A.** ≥ 80%
